We go through 9 compounds from patent US4861789A, “Dihydro-indene-amine-dihydrooxazoles” (Beecham Group plc, priority 1986, dated 1989).

Structures can show the parent of a compound that is named as a salt. Where two headings read alike, the source gives them in different places.

One assay has as its target T1, α2-Adrnoceptor (Homo sapiens, UniProt P08913).
T1 construct: from tissue; host or cells: human platelet membranes
T1 sequence (P08913 1-465): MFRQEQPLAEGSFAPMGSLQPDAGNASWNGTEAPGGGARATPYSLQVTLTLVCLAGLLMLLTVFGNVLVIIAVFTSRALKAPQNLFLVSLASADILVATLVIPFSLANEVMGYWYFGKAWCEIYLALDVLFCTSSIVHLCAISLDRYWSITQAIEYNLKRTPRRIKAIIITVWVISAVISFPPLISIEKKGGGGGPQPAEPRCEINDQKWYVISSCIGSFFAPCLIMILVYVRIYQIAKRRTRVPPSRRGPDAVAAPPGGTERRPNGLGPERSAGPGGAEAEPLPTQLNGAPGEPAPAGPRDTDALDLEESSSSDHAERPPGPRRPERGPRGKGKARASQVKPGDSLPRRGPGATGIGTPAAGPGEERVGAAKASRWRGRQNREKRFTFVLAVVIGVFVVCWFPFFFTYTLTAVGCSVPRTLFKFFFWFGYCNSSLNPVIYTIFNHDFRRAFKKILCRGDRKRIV
Kind of assay: α2-Adrenoceptor binding ([3H] Rauwolscine, human platelet membranes). The method, then:
Human platelet membranes were incubated with [^3 H] Rauwolscine (0.5-1.0 nM) for 30 minutes at 30° C. with varying concetrates of the drug (0.1-10,000 nM). The binding assay was stopped by filtering and rinsing on GF B glass fibre filters.
Binding Affinity (Ki) was calculated using the Cheng-Prussoff equation.

In assay [1] the test system is Adrenaline-Exacerbated Glucose Intolerance. As to the kind of experiment: Reversal of Adrenaline-Exacerbated Glucose Intolerance in Mice. In kind it is in vivo, CFLP female mice. As to conditions: 20 μmol/kg oral gavage, 30 min before glucose (1 g/kg) and adrenaline (300 μg/kg) s.c.; blood samples 0-120 min; versus water dosed control. How it is done: Reversal of Adrenaline-Exacerbated Glucose Intolerance in Mice CFLP female mice of about 25 g were fasted for 24 hours prior to receiving water (10 ml/kg) or the compound by oral gavage. Thirty minutes later, glucose (1 g/kg) and adrenaline (300 μg/kg) were injected subcutaneously. Blood samples for glucose analysis were taken serially from the tail of each mouse at 0, 30, 60, 90 and 120 minutes after dosing glucose and the results are expressed below as the percentage reduction in the area under the blood glucose curve; the compound treated groups being compared to the water dosed control group. Six mice were used in each treatment group.

Usually Ki stands for a measure of affinity in units of concentration, obtained from inhibition or displacement. For `C[C@H]1c2ccccc2C[C@H]1NC1=NCCO1` (relative stereo) [Example 6, 2-[cis-2-(2,3-dihydro-1-methyl-1H-indene)amino]4,5-dihydrooxazole], on α2-Adrnoceptor, the Ki turned out to be 2 nM.
With `C[C@H]1c2ccccc2C[C@@H]1NC1=NCCO1` (relative stereo) [Example 7, 2-[Trans-2-(2,3-dihydro-1-methyl-1H-indene)amino]4,5-dihydrooxazole], on α2-Adrnoceptor, affinity was put at a Ki of 2 nM.
Regarding `c1ccc2c(c1)CC(NC1=NCCO1)C2` [Example 1, 2-[2-(2,3-Dihydro-1H-indene)amino]4,5-dihydrooxazole], the “% Reduction in area under Blood Glucose Curve” value (shortened to “% Reduction in area”) in assay [1] turned out to be 35%. On α2-Adrnoceptor, this compound displayed an inhibition constant (Ki) of 1 nM.
`c1ccc2c(c1)CC(NC1=NCCN1)C2` [Example 2, 2-[2-(2,3-Dihydro-1H-indene)amino)4,5-dihydroimidazole hydrochloride hemihydrate] gave an inhibition constant (Ki) at α2-Adrnoceptor of 98 nM.
`Clc1cccc2c1CC(NC1=NCCO1)C2` (stereo not shown) [Example 3, 2-[2-(4-Chloro-2,3-dihydro-1H-indene)amino]4,5-dihydrooxazole]: in assay [1], the “% Reduction in area” value was found to be 42%. At α2-Adrnoceptor, affinity was put at a Ki of 1 nM.
Turning to `Clc1ccc2c(c1)CC(NC1=NCCO1)C2` (stereo not shown) [Example 4, 2-[2-(5-Chloro-2,3-dihydro-1H-indene)amino]4,5-dihydrooxazole], the “% Reduction in area” value in assay [1] is 44%. The same compound gave a Ki on α2-Adrnoceptor of 25 nM.
Consider `Cc1ccc2c(c1)CC(NC1=NCCO1)C2` (stereo not shown) [Example 5, 2-[2-(2,3-dihydro-5-methyl-1H-indene)amino]4,5-dihydrooxazole], for which the inhibition constant (Ki) on α2-Adrnoceptor was determined as 25 nM.
For the compound `c1ccc2c(c1)CCC(NC1=NCCO1)C2` (stereo not shown) [Example 8, 2-[2-(1,2,3,4-Tetrahydronaphthyl)amino]4,5-dihydrooxazole], the “% Reduction in area” value in assay [1] came out at 18%.
In the case of `c1ccc2c(c1)CC(NC1=NCCS1)C2` [Example 9, 2-[2-(2,3-Dihydro-1H-indene)amino]4,5-dihydrothiazole], the “% Reduction in area” value in assay [1] is given as 33%. Also, the inhibitory constant (Ki) on α2-Adrnoceptor ([3H] Rauwolscine (0.5-1.0 nM), human platelet membranes, 30 minutes at 30° C., Cheng-Prussoff equation, read-out: Binding Affinity Ki) worked out at 190 nM.
